Reference: paper doi:[…]/2021.10.07.463234v2 (biorxiv, 2021)
Where a name gives a salt, the structure may show the parent alone.

Target: SARS-CoV-2 Mac1 (Severe acute respiratory syndrome coronavirus 2, UniProt P0DTD1)
Test: biochemical
Details: for inhibition at 100 µM: read-out: %inhibition; for %inhibition: 100 µM, inhibitor

Row | SMILES | inhibition at 100 µM | %inhibition
1 | CCOc1cc([C@@H](CS(C)(=O)=O)N2C(=O)c3cccc(NC(C)=O)c3C2=O)ccc1OC [Apremilast (CC-10004)] | 0% | 
2 | COc1nc(C)nc(Cl)c1NC1=NCCN1 [Moxonidine] | 0% | 
3 | COCCCN1CCC(NC(=O)c2cc(Cl)c(N)c3c2OCC3)CC1 [Prucalopride] |  | 8.754%
4 | COCCCOc1ccnc(C[S+]([O-])c2nc3ccccc3[nH]2)c1C (centres unmarked) [Rabeprazole] |  | 0.1163%
5 | O=C(NC1CCN(CCCCC2(C(=O)NCC(F)(F)F)c3ccccc3-c3ccccc32)CC1)c1ccccc1-c1ccc(C(F)(F)F)cc1 [Lomitapide] | 17.8% | 
6 | CC(=O)O[C@H]1C[C@@H]2CC[C@@H]3[C@H](CC[C@@]4(C)[C@H]3C[C@H]([N+]3(C)CCCCC3)[C@@H]4OC(C)=O)[C@@]2(C)C[C@@H]1N1CCCCC1 [Vecuronium Bromide] | 0% | 
7 | C[C@H](Cn1cnc2c(N)ncnc21)OCP(=O)(O)O [Tenofovir] | 0% | 
8 | C[N+]1(C)[C@@H]2CC[C@H]1C[C@@H](OC(=O)C(O)c1ccccc1)C2 (some centres unmarked) [Homatropine Methylbromide] | 0% | 
9 | CCCCNc1ccc(C(=O)OCCN(C)C)cc1 [Tetracaine HCl] | 9.17% | 
10 | C[C@]12CCC3=C4CCC(=O)C=C4CC[C@H]3[C@@H]1CC[C@@]2(O)CC#N [Dienogest] | 22% | 
11 | CC(O)(CS(=O)(=O)c1ccc(F)cc1)C(=O)Nc1ccc(C#N)c(C(F)(F)F)c1 (centres unmarked) [Bicalutamide] | 0% | 
12 | O=C(O)c1ccccc1Nc1cccc(C(F)(F)F)c1 [Flufenamic acid] | 3.41% | 
13 | CC/C=C(\C(=O)N[C@@H]1C(=O)N2C(C(=O)OCOC(=O)C(C)(C)C)=C(COC(N)=O)CS[C@H]12)c1csc(N)n1 [Cefcapene Pivoxil Hydrochloride] | 0.547% | 
14 | CN1CCN(C2=Nc3ccccc3Oc3ccc(Cl)cc32)CC1 [Loxapine Succinate] | 30.4% | 
15 | CCN(CC)CCOCCOC(=O)C(CC)(CC)c1ccccc1 [Oxeladin Citrate] | 0.462% | 
16 | CC(C)OC(=O)C(C(=O)OC(C)C)=C1SC=CS1 [Malotilate] | 0.00863% | 

Row | SMILES | inhibition at 100 µM | %inhibition
17 | Cc1ccccc1C(=O)Nc1ccc(C(=O)N2CCCC(O)c3cc(Cl)ccc32)c(C)c1 (centres unmarked) [Tolvaptan] | 10.6% | 
18 | O=c1[nH]c(=O)n([C@H]2C[C@H](O)[C@@H](CO)O2)cc1C(F)(F)F [Trifluridine] | 0% | 
19 | O=C(O[C@@H]1C[C@@H]2C[C@H]3C[C@H](C1)N2CC3=O)c1c[nH]c2ccccc12 [Dolasetron] | 7.05% | 
20 | CNC[C@H](O)c1ccc(O)c(O)c1 [Epinephrine HCl] |  | 5.697%
21 | COCC(=O)Nc1c(I)c(C(=O)NCC(O)CO)c(I)c(C(=O)N(C)CC(O)CO)c1I (mixture of isomers) [Iopromide] | 0% | 
22 | Cc1ncc(CO)c(CO)c1O [Pyridoxine] | 0% | 
23 | CCOC(=O)C1=C(COCCN)NC(C)=C(C(=O)OC)C1c1ccccc1Cl (centres unmarked) [Amlodipine Besylate] |  | 25.29%
24 | CC(=O)N[C@H]1[C@H]([C@H](O)[C@H](O)CO)OC(C(=O)O)=C[C@@H]1NC(=N)N [Zanamivir] | 0% | 
25 | Cc1ncc([N+](=O)[O-])n1CC(O)CCl (centres unmarked) [Ornidazole] | 17.6% | 
26 | CC1=C(C(=O)OC(C)C)C(c2cccc([N+](=O)[O-])c2)C(C(=O)OC2CN(C(c3ccccc3)c3ccccc3)C2)=C(N)N1 (centres unmarked) [Azelnidipine] | 12.9% | 
27 | CC1=C(/C=C/C(C)=C/C=C/C(C)=C/CO)C(C)(C)CCC1 [Vitamin A] | 2.61% | 
28 | O=C(O)c1cccnc1Nc1cccc(C(F)(F)F)c1 [Niflumic acid] | 11% | 
29 | CC(O)C(=O)O (centres unmarked) [Ammonium lactate] | 16.4% | 
30 | C[C@H](NCc1ccc(OCc2cccc(F)c2)cc1)C(N)=O [Safinamide Mesylate] |  | 9.23%
31 | Cc1ccc(=O)n(-c2ccccc2)c1 [Pirfenidone] | 15.4% | 
32 | CCCCCNC(=N)N/N=C/c1c[nH]c2ccc(OC)cc12 [Tegaserod Maleate] | 1.73% | 
